# Where two headings read alike, the source gives them in different places.
# B1: sIL13Rα2.Fc: soluble IL-13 receptor fusion protein, a soluble IL-13 antagonist (protein)
# chain: DTEIKVNPPQDFEIVDPGYLGYLYLQWQPPLSLDHFKECTVEYELKYRNIGSETWKTIITKNLHYKDGFDLNKGIEAKIHTLLPWQCTNGSEVQSSWAETTYWISPQGIPETKVQDMDCVYYNWQYLLCSWKPGIGVLLDTNYNLFYWYEGLDHALQCVDYIKADGQNIGCRFPYLEASDYKDFYICVNGSSENKPIRSSYFTFQLQNIVKPLPPVYLTFTRESSCEIKLKWSIPLGPIPARCFDYEIEIREDDTTLVTATVENETYTLKTTNETRQLCFVVRSKVNIYCSDDGIWSEWSDKQCWEGEDLSKKTLLR
# modifications: left off: a dimerising Fc or GST
# notes: soluble IL-13 receptor fusion protein, a soluble IL-13 antagonist
# Legend:
# arginase [1] = assay: arginase activity in internal anal sphincter
# arginase [2] = conditions: intact cells; cited from earlier work
# iNOS = iNOS (Mus musculus, UniProt P29477); conditions: cited from earlier work
# arginase [3] = conditions: read-out: IC50 hydrolysis of L-arginine to L-ornithine; unstimulated murine macrophages (Tenu et al.); cited from earlier work
# arginase [4] = assay: arginase activity of murine macrophages (hydrolysis of L-arginine to L-ornithine); format: cell-based; conditions: unstimulated murine macrophages
# From the text: Stimulation of murine macrophages with interferon-gamma and lipopolysaccharide (IFN-gamma+LPS) results in clear expression of an inducible NOS (iNOS) and to an increase in arginase activity.
# arginase [5] = conditions: IFN-gamma+LPS-stimulated macrophage; cited from earlier work
# IL-13 [6] = conditions: mouse model, background; cited from earlier work
# IL-13 [7] = assay: OVA-challenge asthma model: mucus production and airway hyperresponsiveness; format: in vivo, mouse; conditions: FIG. 12 legend
# From the text: It is generally accepted that allergic asthma is initiated by an inappropriate inflammatory reaction to airborne allergens. […] One murine model of asthma involves sensitization of the animal to ovalbumin (OVA) followed by intratracheal delivery of the OVA challenge. […] The cytokine IL-13, expressed by basophils, mast cells, activated T cells and NK cells, plays a central role in the inflammatory response to OVA in mouse lungs. […] Thus, IL-13 mediated signaling is sufficient to elicit all four asthma-related pathophysiological phenotypes and is required for the hypersecretion of mucous and induced AHR in the mouse model.
# FIG. 12 is a graphical representation showing that ARG1 mRNA expression increases following direct pulmonary instillation of rIL-13 or intratracheal Ovalbumin allergen challenge. Blockade of IL-13 signaling by administration of sIL13Rα2.Fc inhibits 67% of induced Arg1 mRNA expression. Blockade of IL-13 using the soluble receptor sIL13Rα2.Fc inhibits the allergen induced mucus production and airway hyperresponsiveness (AHR).
# IL-13 [8] = assay: lung ARG1 mRNA expression after ovalbumin allergen challenge; format: in vivo, Balb/c mice; conditions: mouse lung
# Protocol: Balb/c mice were immunized by an intraperitoneal (i.p.) injection of 10 μg of OVA (Sigma, St. Louis, Mo.) in 200 μl of PBS on day 0. On days 14 and 25 mice were anesthetized with a mixture of ketamine and xylazine (45 and 8 mg/kg, respectively) and challenged intratracheally with 50 μl of a 1.5% solution of OVA or an equivalent volume of PBS. Mice were injected i.p. either with 100 μl of PBS, hIgG (400 μg/ml) or sIL-13α2-Fc (400 μg/ml) on days 24, 25 and 27. Purification of hIgG was carried according to Urban et al., Immunity 8(2): […], 1998. Lungs were collected and snap frozen for RNA isolation on day 28.
# To identify changes in mRNA concentration dependent on IL-13 mediated signal transduction, two of the OVA-challenged mice were treated with three intraperitoneal injections of the soluble IL-13 receptor fusion protein, sIL-13Rα2-Fc, prior to and during the course of the allergic challenge. As control for the Fc-moiety of the receptor fusion protein, two of the OVA-challenged mice were similarly treated with intraperitoneal administration of hIgG. […]
# Balb/C-treated and untreated mice were sensitized to OVA, treated with PBS, rIL-13 or sIL13Rα2.Fc as described in FIG. 1. Total lung RNA was isolated and analyzed for ARG1 expression as described in Example 2. The mRNA frequency is expressed as parts per million.
molecule,measurement,setting,value
"N[C@@H](CCCCB(O)O)C(=O)O [ABH, 2(S)-amino-6-boronohexanoic acid]",potency relative to L-NOHA in inhibiting arginase activity,arginase [1],approximately 250 times
"NCCC[C@](N)(C(=O)O)C(F)F [DFMO, α-difluoromethylornithine]",effect on the flux of L-arginine through arginase,arginase [2],inhibitive effect
"N=C(NO)NCC[C@H](N)C(=O)O [nor-NOHA, N(omega)-hydroxy-L-nor-arginine]",substrate or inhibitor for iNOS,iNOS,neither a substrate nor an inhibitor
same,IC50,arginase [3],12 µM
same,potency relative to L-NOHA,arginase [4],about 40 fold
same,IC50,arginase [5],10 µM
B1,OVA-challenge induced goblet cell mucus synthesis and AHR to acetylcholine,IL-13 [6],completely blocked
same,allergen induced mucus production and airway hyperresponsiveness (AHR),IL-13 [7],inhibits
same,inhibition of induced Arg1 mRNA expression,IL-13 [8],67%
